We go through two compounds from patent US11938203B2, “Oil-dispersed composition and cosmetics for lip care using the same” (AMOREPACIFIC CORPORATION, priority 2021, dated 2024).

This data set is described as follows: Compatibility between water-soluble effective raw materials and oils. The data set is classed as physicochemical. From the text: Compatibility Between Water-Soluble Effective Raw Materials and Oils
[1] abbreviates: ester oil and silicone-based oil that do not contain a glyceryl group or an isostearyl group.
[2] abbreviates: oil: Polyglyceryl-2 Triisostearate.

`COc1cc(/C=C/C(=O)Oc2cc(C)ccc2C(C)C)cc(OC)c1OC` [Thymol trimethoxy cinnamate]: the “Compatibility with oil (in words)” value is listed as “very good compatibility” (diisostearyl malate oil (diester-based oil), FIG. 1); “excellent compatibility” under setting [1]; “poor compatibility” (hydrocarbon oil-based oil or alcohol-based oil); “very poor compatibility” (pentaerythrityl tetraisostearate oil, FIG. 2). The Compatibility with oil entry is, setting by setting: (oil: Diisostearyl Malate) “◯”; (oil: Diphenylsiloxy Phenyl Trimethicone) “◯”; (oil: Isononyl isononanoate) “◯”; (oil: Octyldodecyl neopentanoate) “◯”; under setting [2], “◯”.

For the compound Ceramides, the “Compatibility with oil (in words)” value under setting [1] is “poor compatibility”. The Compatibility with oil entry is, setting by setting: (oil: Diisostearyl Malate) “◯”; under setting [2], “◯”.
